What was measured:
[1] = system: breast cancer cells (MDA-MB-468); test: Cancer cell line growth inhibition, Sulforhodamine B assay, MDA-MB-468; assay type: cell-based; conditions: Homo sapiens, MDA-MB-468, MDA-MB-468 breast cancer cell line; read-out: Cancer Cell Line GI50 Range MDA-MB-468
Summary of the method: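 MDA-MB-468 cells exposed 5 days to compound at final 10 nM to 50 μM in DMEM with 10% FBS. Growth measured by sulforhodamine B protein staining after TCA fixation, absorbance 570 nm; inhibition relative to DMSO-only cells, GI50 determined for cytotoxic compounds.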

[2] = system: colon cancer cells (HCT116); test: Cancer cell line growth inhibition, Sulforhodamine B assay, HCT116; assay type: cell-based; conditions: Homo sapiens, HCT-116, HCT116 colon cancer cell line; read-out: Cancer Cell Line GI50 Range HCT116
Summary of the method: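 HCT116 cells, 1000–4000 per well, seeded 24 h ahead, then treated 5 days with compound at 10 nM to 50 μM final in DMEM with 10% FBS. Growth measured by sulforhodamine B staining after TCA fixation, A570; GI50 from inhibition relative to DMSO-only cells.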

[3] = system: ovarian cancer cells (OVCAR-3); test: Cancer cell line growth inhibition, Sulforhodamine B assay, OVCAR-3; assay type: cell-based; conditions: Homo sapiens, OVCAR-3, OVCAR-3 ovarian cancer cell line; read-out: Cancer Cell Line GI50 Range OVCAR-3
Summary of the method: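 OVCAR-3 cells were seeded 24 h before compound addition, then exposed for 5 days to final concentrations of 10 nM to 50 μM in DMEM with 10% FBS. Growth was measured by TCA fixation and sulforhodamine B staining with absorbance at 570 nm. Inhibition was relative to DMSO-only cells, and GI50 came from curve fitting.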

human TTK = target: T1, human TTK (Homo sapiens, UniProt P33981); test: TTK inhibition assay (indirect ELISA); assay type: biochemical; conditions: 100 μM ATP; read-out: TTK IC50 Range
T1 construct: Active TTK was purchased from Invitrogen as an amino terminal GST fusion of full length human TTK; purchased Invitrogen
T1 sequence (P33981 1-857): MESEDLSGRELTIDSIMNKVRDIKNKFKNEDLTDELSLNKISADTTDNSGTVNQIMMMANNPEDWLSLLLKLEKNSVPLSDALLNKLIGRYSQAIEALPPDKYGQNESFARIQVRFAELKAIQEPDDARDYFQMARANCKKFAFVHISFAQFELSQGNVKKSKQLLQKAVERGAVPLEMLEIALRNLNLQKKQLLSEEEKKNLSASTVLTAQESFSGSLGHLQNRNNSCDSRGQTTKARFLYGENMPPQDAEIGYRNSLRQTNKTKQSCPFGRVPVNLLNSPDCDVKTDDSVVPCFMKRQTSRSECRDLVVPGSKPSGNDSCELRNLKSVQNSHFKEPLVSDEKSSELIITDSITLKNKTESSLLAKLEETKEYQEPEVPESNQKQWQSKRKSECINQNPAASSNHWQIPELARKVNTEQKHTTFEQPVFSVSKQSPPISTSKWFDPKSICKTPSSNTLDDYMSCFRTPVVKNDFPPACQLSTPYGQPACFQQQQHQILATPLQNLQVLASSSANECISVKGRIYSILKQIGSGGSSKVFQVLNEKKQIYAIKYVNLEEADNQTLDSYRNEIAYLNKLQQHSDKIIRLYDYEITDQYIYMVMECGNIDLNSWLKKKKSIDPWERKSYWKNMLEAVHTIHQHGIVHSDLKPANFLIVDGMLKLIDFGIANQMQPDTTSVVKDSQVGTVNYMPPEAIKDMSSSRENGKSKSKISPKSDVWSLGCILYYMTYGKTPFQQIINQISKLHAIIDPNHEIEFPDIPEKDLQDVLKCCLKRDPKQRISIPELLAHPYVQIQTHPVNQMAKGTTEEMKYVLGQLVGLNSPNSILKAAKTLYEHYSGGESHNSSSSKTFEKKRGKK
Summary of the method: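 Activity detected by indirect ELISA after compounds sat with full-length GST-TTK for 5 min prior to starting the reaction with ATP. IC50 came from a four-parameter logistic curve of % inhibition, calculated against background and uninhibited control wells.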

CC[C@H](Nc1cc(NC[C@H]2CCOC2)n2ncc(-c3ccc(C(=O)NC4CC4)c(C)c3)c2n1)[C@H](C)O [Example C133]
GI50 [1]: 100 to 500 nM | GI50 [2]: 100 to 500 nM | GI50 [3]: 100 to 500 nM | IC50 (human TTK): < 100 nM

CC[C@H](Nc1cc(NC[C@@H]2CCOC2)n2ncc(-c3ccc(C(=O)NC4CC4)c(C)c3)c2n1)[C@H](C)O [Example C134]
GI50 [1]: 100 to 500 nM | GI50 [2]: 100 to 500 nM | GI50 [3]: 100 to 500 nM | IC50 (human TTK): < 100 nM

Cc1cc(-c2cnn3c(NCC4CCOCC4)cc(N[C@@H]4CCOC4)nc23)ccc1C(=O)NC1CC1 [Example C136]
GI50 [1]: ≤ 100 nM | GI50 [2]: ≤ 100 nM | GI50 [3]: 100 to 500 nM | IC50 (human TTK): < 100 nM

Cc1cc(-c2cnn3c(NCC4CCOCC4)cc(N[C@H]4CCOC4)nc23)ccc1C(=O)NC1CC1 [Example C138]
GI50 [1]: 100 to 500 nM | GI50 [2]: ≤ 100 nM | GI50 [3]: 100 to 500 nM | IC50 (human TTK): < 100 nM

Cc1cc(-c2cnn3c(NCC4CCOCC4)cc(NC4(CO)CC4)nc23)ccc1C(=O)NC1CC1 [Example C139]
GI50 [1]: 100 to 500 nM | GI50 [2]: 100 to 500 nM | GI50 [3]: 100 to 500 nM | IC50 (human TTK): < 100 nM

Cc1cc(-c2cnn3c(NCC4CCOCC4)cc(NC4CC5(COC5)C4)nc23)ccc1C(=O)NC1CC1 [Example C141]
GI50 [1]: 100 to 500 nM | GI50 [2]: ≤ 100 nM | GI50 [3]: 100 to 500 nM | IC50 (human TTK): < 100 nM

Cc1cc(-c2cnn3c(NCC4CCOCC4)cc(N4CC[C@H](O)C4)nc23)ccc1C(=O)NC1CC1 [Example C143]
GI50 [1]: > 500 nM | GI50 [2]: > 500 nM | GI50 [3]: > 500 nM | IC50 (human TTK): 100 to 500 nM

Cc1cc(-c2cnn3c(NCC4(F)CCN(C)CC4)cc(Oc4cccnc4)nc23)ccc1C(=O)NC1CC1 [Example C147]
GI50 [1]: 100 to 500 nM | GI50 [2]: 100 to 500 nM | GI50 [3]: > 500 nM | IC50 (human TTK): < 100 nM

Cc1cc(-c2cnn3c(NCC4CC4)cc(NC4(CO)CCCC4)nc23)ccc1C(=O)NC1CC1 [Example C148]
GI50 [1]: 100 to 500 nM | GI50 [2]: 100 to 500 nM | GI50 [3]: > 500 nM | IC50 (human TTK): < 100 nM

Cc1cc(-c2cnn3c(NCC4CCOCC4)cc(-c4ccnn4C)nc23)ccc1C(=O)NC1CC1 [Example C151]
GI50 [1]: 100 to 500 nM | GI50 [2]: ≤ 100 nM | GI50 [3]: 100 to 500 nM | IC50 (human TTK): < 100 nM

Cc1cc(-c2cnn3c(NCC4CC4)cc(Oc4cccnc4)nc23)ccc1C(=O)NC1CC1 [Example C152]
GI50 [1]: ≤ 100 nM | GI50 [2]: ≤ 100 nM | GI50 [3]: ≤ 100 nM | IC50 (human TTK): < 100 nM

Cc1cc(-c2cnn3c(NCC4CC4)cc(NC4CCOCC4)nc23)ccc1C(=O)NC1CC1 [Example C153]
GI50 [1]: 100 to 500 nM | GI50 [2]: ≤ 100 nM | GI50 [3]: 100 to 500 nM | IC50 (human TTK): < 100 nM

Cc1cc(-c2cnn3c(NC[C@H]4C[C@@H](O)C4)cc(NC4CCOCC4)nc23)ccc1C(=O)NC1CC1 [Example C156]
GI50 [1]: 100 to 500 nM | GI50 [2]: 100 to 500 nM | GI50 [3]: 100 to 500 nM | IC50 (human TTK): < 100 nM

Cc1cc(-c2cnn3c(NCC(C)C)cc(N[C@H]4CCCC[C@H]4O)nc23)ccc1C(=O)NC1CC1 [Example C157]
GI50 [1]: ≤ 100 nM | GI50 [2]: ≤ 100 nM | GI50 [3]: ≤ 100 nM | IC50 (human TTK): < 100 nM

Cc1cc(-c2cnn3c(NCC(C)C)cc(N[C@H](CO)C(C)C)nc23)ccc1C(=O)NC1CC1 [Example C158]
GI50 [1]: 100 to 500 nM | GI50 [2]: ≤ 100 nM | GI50 [3]: 100 to 500 nM | IC50 (human TTK): < 100 nM

Cc1cc(-c2cnn3c(NC[C@H]4C[C@@H](O)C4)cc(Oc4cccnc4)nc23)ccc1C(=O)NC1CC1 [Example C159]
GI50 [1]: ≤ 100 nM | GI50 [2]: ≤ 100 nM | GI50 [3]: ≤ 100 nM | IC50 (human TTK): < 100 nM

Cc1cc(-c2cnn3c(NCC4CCOCC4)cc(N4CCC[C@H]4CO)nc23)ccc1C(=O)NC1CC1 [Example C161]
GI50 [1]: 100 to 500 nM | GI50 [2]: ≤ 100 nM | GI50 [3]: 100 to 500 nM | IC50 (human TTK): < 100 nM

Cc1cc(-c2cnn3c(NCC4CCOCC4)cc(N[C@H](CO)C4CCCCC4)nc23)ccc1C(=O)NC1CC1 [Example C163]
GI50 [1]: 100 to 500 nM | GI50 [2]: ≤ 100 nM | GI50 [3]: 100 to 500 nM | IC50 (human TTK): < 100 nM

Cc1cc(-c2cnn3c(NCC4CCOCC4)cc(N4CCC[C@@H]4CO)nc23)ccc1C(=O)NC1CC1 [Example C164]
GI50 [1]: 100 to 500 nM | GI50 [2]: 100 to 500 nM | GI50 [3]: > 500 nM | IC50 (human TTK): < 100 nM

Cc1cc(-c2cnn3c(NCC4(F)CCNCC4)cc(NC4CCCC4)nc23)ccc1C(=O)NC1CC1 [Example C169]
GI50 [1]: > 500 nM | GI50 [2]: 100 to 500 nM | GI50 [3]: > 500 nM | IC50 (human TTK): < 100 nM

Cc1cc(-c2cnn3c(NCC4(F)CCN(C)CC4)cc(NC4CCCC4)nc23)ccc1C(=O)NC1CC1 [Example C170]
GI50 [1]: 100 to 500 nM | GI50 [2]: 100 to 500 nM | GI50 [3]: > 500 nM | IC50 (human TTK): < 100 nM

Cc1cc(-c2cnn3c(NC[C@H]4C[C@H](O)C4)cc(NC4CCCC4)nc23)ccc1C(=O)NC1CC1 [Example C172]
GI50 [1]: ≤ 100 nM | GI50 [2]: ≤ 100 nM | GI50 [3]: ≤ 100 nM | IC50 (human TTK): < 100 nM

Cc1cc(-c2cnn3c(NCC4(F)CCNCC4)cc(OC4CCCC4)nc23)ccc1C(=O)NC1CC1 [Example C173]
GI50 [1]: > 500 nM | GI50 [2]: 100 to 500 nM | GI50 [3]: > 500 nM | IC50 (human TTK): < 100 nM

Cc1cc(-c2cnn3c(NCC4(F)CCN(C)CC4)cc(OC4CCCC4)nc23)ccc1C(=O)NC1CC1 [Example C174]
GI50 [1]: > 500 nM | GI50 [2]: 100 to 500 nM | GI50 [3]: > 500 nM | IC50 (human TTK): < 100 nM

Cc1cc(-c2cnn3c(NCCN4CCN(C)CC4)cc(Oc4cccc(F)c4)nc23)ccc1C(=O)NC1CC1 [Example C178]
GI50 [1]: ≤ 100 nM | GI50 [2]: ≤ 100 nM | GI50 [3]: 100 to 500 nM | IC50 (human TTK): < 100 nM

Cc1cc(-c2cnn3c(NC[C@H]4CC[C@@H](O)CC4)cc(NC4CCOCC4)nc23)ccc1C(=O)NC1CC1 [Example C179]
GI50 [1]: ≤ 100 nM | GI50 [2]: ≤ 100 nM | GI50 [3]: ≤ 100 nM | IC50 (human TTK): < 100 nM

Cc1cc(-c2cnn3c(NCCN4CCCCC4)cc(Oc4cccc(F)c4)nc23)ccc1C(=O)NC1CC1 [Example C180]
GI50 [1]: 100 to 500 nM | GI50 [2]: ≤ 100 nM | GI50 [3]: 100 to 500 nM | IC50 (human TTK): < 100 nM

Cc1cc(-c2cnn3c(NCCN4CCOCC4)cc(Oc4ccc(F)cc4)nc23)ccc1C(=O)NC1CC1 [Example C181]
GI50 [1]: 100 to 500 nM | GI50 [2]: ≤ 100 nM | GI50 [3]: 100 to 500 nM | IC50 (human TTK): < 100 nM

Cc1cc(-c2cnn3c(NCCN4CCC(O)CC4)cc(N[C@H]4CCCC[C@H]4O)nc23)ccc1C(=O)NC1CC1 [Example C183]
GI50 [1]: 100 to 500 nM | GI50 [2]: > 500 nM | GI50 [3]: > 500 nM | IC50 (human TTK): < 100 nM

Cc1cc(-c2cnn3c(NC[C@H]4C[C@](C)(O)C4)cc(NC4CCCC4)nc23)ccc1C(=O)NC1CC1 [Example C186]
GI50 [1]: 100 to 500 nM | GI50 [2]: ≤ 100 nM | GI50 [3]: 100 to 500 nM | IC50 (human TTK): < 100 nM
